# According to patent US9833497B2, “Human originated EGF domain proteins and use of the same” (CHENGDU SOURCEBIO LIMITED-LIABILITY COMPANY, priority 2013, dated 2017):
# Columns and labels:
# Assay type in all cases: cell-based
# [1] = test system: Moraxella catarrhalis; test: MIC against Gram-negative bacteria: Moraxella catarrhalis; conditions: 5×10^5 CFU/mL
# Outline: (§1)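 Broth microdilution, LB medium, final inoculum 5×10^5 CFU/mL from McFarland 0.5 cultures. Recombinant human EGF domain proteins tested in two-fold steps, n=3. MIC: lowest concentration, no growth.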
# [2] = test system: Pseudomonas aeruginosa; test: MIC against Gram-negative bacteria: Pseudomonas aeruginosa; conditions: 5×10^5 CFU/mL
# Outline: as §1
# [3] = test system: Proteus mirabilis; test: MIC against Gram-negative bacteria: Proteus mirabilis; conditions: 5×10^5 CFU/mL
# Outline: as §1
# [4] = test system: Proteus vulgaris; test: MIC against Gram-negative bacteria: Proteus vulgaris; conditions: 5×10^5 CFU/mL
# Outline: as §1
# [5] = test system: E. coli DH5α; test: Antibacterial activity: MIC and growth curve against E. coli DH5α in 96-well plate; conditions: minimal inhibitory concentration against E. coli DH5α; 96-well plate, 5×10^5 CFU/mL, 37° C., judged after 8 h
# Outline: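 MIC taken as lowest protein level with no bacterial growth, tracked by A600 every 30 min during 37 °C, 175 rpm culture. Two-fold protein series 50-12.5 μg/mL final, triplicate wells, against 5×10^5 CFU/mL of LB-washed mid-log cells.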
# [6] = test system: Citrobacter diversus; test: MIC against Gram-negative bacteria: Citrobacter diversus; conditions: 5×10^5 CFU/mL
# Outline: as §1
# [7] = test system: Klebsiella pneumonia; test: MIC against Gram-negative bacteria: Klebsiella pneumonia; conditions: 5×10^5 CFU/mL
# Outline: as §1
# [8] = test system: Enterobacter cloacae; test: MIC against Gram-negative bacteria: Enterobacter cloacae; conditions: 5×10^5 CFU/mL
# Outline: as §1
# [9] = test system: E. coli BL21; test: MIC against Gram-negative bacteria: E. coli BL21; conditions: 5×10^5 CFU/mL
# Outline: as §1
# [10] = test system: Aeromonas hydrophila; test: MIC against Gram-negative bacteria: Aeromonas hydrophila; conditions: 5×10^5 CFU/mL
# Outline: as §1
# [11] = test system: Serratia marcescens; test: MIC against Gram-negative bacteria: Serratia marcescens; conditions: 5×10^5 CFU/mL
# Outline: as §1
# [12] = Moraxella catarrhalis, 96-well plate, 37° C., 10 h
# [13] = Pseudomonas aeruginosa, 96-well plate, 37° C., 10 h
# [14] = Proteus mirabilis, 96-well plate, 37° C., 10 h
# [15] = Proteus vulgaris, 96-well plate, 37° C., 10 h
# [16] = Citrobacter diversus, 96-well plate, 37° C., 10 h
# [17] = Klebsiella pneumonia, 96-well plate, 37° C., 10 h
# [18] = Enterobacter cloacae, 96-well plate, 37° C., 10 h
# [19] = E. coli BL21, 96-well plate, 37° C., 10 h
# [20] = Aeromonas hydrophila, 96-well plate, 37° C., 10 h
# [21] = Serratia marcescens, 96-well plate, 37° C., 10 h
# [22] = M. catarrhalis, 10 h cultivation at 37° C.
# [23] = P. aeruginosa, 10 h cultivation at 37° C.
# [24] = P. mirabilis, 10 h cultivation at 37° C.
# [25] = P. vulgaris, 10 h cultivation at 37° C.
# [26] = C. diversus, 10 h cultivation at 37° C.
# [27] = K. pneumonia, 10 h cultivation at 37° C.
# [28] = E. cloacae, 10 h cultivation at 37° C.
# [29] = E. coli BL21, 10 h cultivation at 37° C.
# [30] = A. hydrophila, 10 h cultivation at 37° C.
# [31] = S. marcescens, 10 h cultivation at 37° C.
substance,measurement,setting,value
PRT26 (CDSGPCKNSGFCSERWGSFSCDCPVGFGGKDCQ; listed as Homo sapiens),MIC (μg/mL) M. catarrhalis,[1]; [12],12.5 µg/mL
same,MIC (μg/mL) P. aeruginosa,[2]; [13],25 µg/mL
same,MIC (μg/mL) P. mirabilis,[3]; [14],25 µg/mL
same,MIC (μg/mL) P. vulgaris,[4]; [15],12.5 µg/mL
same,MIC,[5],25 µg/mL
same,MIC (μg/mL) C. diversus,[6]; [16],25 µg/mL
same,MIC (μg/mL) K. pneumonia,[7]; [17],12.5 µg/mL
same,MIC (μg/mL) E. cloacae,[8]; [18],25 µg/mL
same,MIC (μg/mL) E. coli BL21,[9]; [19],12.5 µg/mL
same,MIC (μg/mL) A. hydrophila,[10]; [20],12.5 µg/mL
same,MIC (μg/mL) S. marcescens,[11]; [21],25 µg/mL
PRT239 (SAGPCTPNPCHNGGTCEISEAYRGDTFIGYVCKCPRGFNGIHCQ; listed as Homo sapiens),MIC (μg/mL) M. catarrhalis,[1]; [22],25 µg/mL
same,MIC (μg/mL) P. aeruginosa,[2]; [23],12.5 µg/mL
same,MIC (μg/mL) P. mirabilis,[3]; [24],12.5 µg/mL
same,MIC (μg/mL) P. vulgaris,[4]; [25],12.5 µg/mL
same,MIC,[5],25 µg/mL
same,MIC (μg/mL) C. diversus,[6]; [26],100 µg/mL
same,MIC (μg/mL) K. pneumonia,[7]; [27],12.5 µg/mL
same,MIC (μg/mL) E. cloacae,[8]; [28],12.5 µg/mL
same,MIC (μg/mL) E. coli BL21,[9]; [29],12.5 µg/mL
same,MIC (μg/mL) A. hydrophila,[10]; [30],12.5 µg/mL
same,MIC (μg/mL) S. marcescens,[11]; [31],12.5 µg/mL
PRT1397 (PMNQCIDPSCGGHGSCIDGNCVCSAGYKGEHCE; listed as Homo sapiens),MIC against M. catarrhalis,"[1]; Moraxella catarrhalis, 10 h cultivation at 37° C.",12.5 µg/mL
same,MIC against P. aeruginosa,"[2]; Pseudomonas aeruginosa, 10 h cultivation at 37° C.",12.5 µg/mL
same,MIC against P. mirabilis,"[3]; Proteus mirabilis, 10 h cultivation at 37° C.",25 µg/mL
same,MIC against P. vulgaris,"[4]; Proteus vulgaris, 10 h cultivation at 37° C.",50 µg/mL
same,MIC,[5],50 µg/mL
same,MIC against C. diversus,"[6]; Citrobacter diversus, 10 h cultivation at 37° C.",25 µg/mL
same,MIC against K. pneumonia,"[7]; Klebsiella pneumonia, 10 h cultivation at 37° C.",50 µg/mL
same,MIC against E. cloacae,"[8]; Enterobacter cloacae, 10 h cultivation at 37° C.",12.5 µg/mL
same,MIC against E. coli BL21,[9]; [29],25 µg/mL
same,MIC against A. hydrophila,"[10]; Aeromonas hydrophila, 10 h cultivation at 37° C.",50 µg/mL
same,MIC against S. marcescens,"[11]; Serratia marcescens, 10 h cultivation at 37° C.",25 µg/mL
PRT1208 (VHHGCEDDPCPEGSECVSDPWEEKHTCVCPSGRFGQCP; listed as Homo sapiens),MIC against M. catarrhalis,[1]; [12],12.5 µg/mL
same,MIC against P. aeruginosa,[2]; [13],12.5 µg/mL
same,MIC against P. mirabilis,[3]; [14],50 µg/mL
same,MIC against P. vulgaris,[4]; [15],25 µg/mL
same,MIC,[5],12.5 µg/mL
same,MIC against C. diversus,[6]; [16],25 µg/mL
same,MIC against K. pneumonia,[7]; [17],25 µg/mL
same,MIC against E. cloacae,[8]; [18],12.5 µg/mL
same,MIC against E. coli BL21,[9]; [19],25 µg/mL
same,MIC against A. hydrophila,[10]; [20],50 µg/mL
same,MIC against S. marcescens,[11]; [21],12.5 µg/mL
PRT412 (LNDRCRGGGPCKQQCRDTGDEVVCSCFVGYQLLSDGVSCE; listed as Homo sapiens),MIC,[1]; [22],25 µg/mL
same,MIC,[2]; [23],12.5 µg/mL
same,MIC,[3]; [24],12.5 µg/mL
same,MIC,[4]; [25],25 µg/mL
same,MIC,[5],12.5 µg/mL
same,MIC,[6]; [26],12.5 µg/mL
same,MIC,[7]; [27],25 µg/mL
same,MIC,[8]; [28],50 µg/mL
same,MIC,[9]; [29],50 µg/mL
same,MIC,[10]; [30],25 µg/mL
same,MIC,[11]; [31],12.5 µg/mL
PRT567 (CTCDPAGSQNEGICDSYTDFSTGLIAGQCRCKLNVEGEHCDVCKEGFYDLSSEDPFGCKS; listed as Homo sapiens),MIC against M. catarrhalis,"[1]; 96-well plate, 37° C., 10 h",50 µg/mL
same,MIC against P. aeruginosa,"[2]; 96-well plate, 37° C., 10 h",12.5 µg/mL
same,MIC against P. mirabilis,"[3]; 96-well plate, 37° C., 10 h",12.5 µg/mL
same,MIC against P. vulgaris,"[4]; 96-well plate, 37° C., 10 h",12.5 µg/mL
same,MIC,[5],50 µg/mL
same,MIC against C. diversus,"[6]; 96-well plate, 37° C., 10 h",12.5 µg/mL
same,MIC against K. pneumonia,"[7]; 96-well plate, 37° C., 10 h",25 µg/mL
same,MIC against E. cloacae,"[8]; 96-well plate, 37° C., 10 h",50 µg/mL
same,MIC against E. coli BL21,"[9]; 96-well plate, 37° C., 10 h",25 µg/mL
same,MIC against A. hydrophila,"[10]; 96-well plate, 37° C., 10 h",25 µg/mL
same,MIC against S. marcescens,"[11]; 96-well plate, 37° C., 10 h",12.5 µg/mL
PRT821 (DVDECRTHNGGCQHRCVNTPGSYLCECKPGFRLHTDSRTCL; listed as Homo sapiens),MIC (μg/mL) M. catarrhalis,[1]; [22],12.5 µg/mL
same,MIC (μg/mL) P. aeruginosa,[2]; [23],12.5 µg/mL
same,MIC (μg/mL) P. mirabilis,[3]; [24],50 µg/mL
same,MIC (μg/mL) P. vulgaris,[4]; [25],12.5 µg/mL
same,MIC,[5],12.5 µg/mL
same,MIC (μg/mL) C. diversus,[6]; [26],25 µg/mL
same,MIC (μg/mL) K. pneumonia,[7]; [27],25 µg/mL
same,MIC (μg/mL) E. cloacae,[8]; [28],25 µg/mL
same,MIC (μg/mL) E. coli BL21,[9]; [29],12.5 µg/mL
same,MIC (μg/mL) A. hydrophila,[10]; [30],50 µg/mL
same,MIC (μg/mL) S. marcescens,[11]; [31],50 µg/mL
